Test systems include A549 NSCLC; COLO 205 colon; EKVX NSCLC; HCC-2998 colon; HCT-116 colon; HCT-15 colon; HOP-62 NSCLC; HOP-92 NSCLC; LOX IMVI melanoma; MCF7 breast; MDA-MB-231 breast; NCI-H226 lung; NCI-H23 lung; OVCAR-5 ovarian; OVCAR-8 ovarian; RXF 393 renal; SF-295 CNS; SF-539 CNS; U251 CNS.
Assay in all cases: NCI anticancer screen, dose series, 48 h

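Interpolation was linear, between the two tested concentrations surrounding the appropriate level; five concentrations were tested over 48 hours in 96-well plates. TGI: concentration producing complete growth inhibition.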

`CCOC(=O)c1c(N2CCCC2)[nH]c(=O)c(C(c2ccc(Cl)c([N+](=O)[O-])c2)c2c(O)c(C(=O)OCC)c(N3CCCC3)[nH]c2=O)c1O`: the TGI with A549 NSCLC, in the assay on COLO 205 colon, in the assay with EKVX NSCLC, in the assay on HCC-2998 colon, in the assay with HCT-116 colon and with HCT-15 colon was over 100 µM each time. In addition, the TGI with HOP-62 NSCLC is over 100 µM; in the assay on HOP-92 NSCLC, 58.3 µM; with LOX IMVI melanoma, 49.4 µM; with MCF7 breast it was over 100 µM; in the assay with MDA-MB-231 breast it was 50.5 µM; with NCI-H226 lung, over 100 µM. The TGI with NCI-H23 lung was 48.9 µM; in the assay on OVCAR-5 ovarian, over 100 µM; with OVCAR-8 ovarian it was 33.5 µM; in the assay with RXF 393 renal, 99.6 µM; in the assay on SF-295 CNS, over 100 µM; in the assay with SF-539 CNS, 41.6 µM. This compound displayed a TGI in the assay with U251 CNS of 36.9 µM.

`CC(=O)Oc1c2ccsc2c(OC(C)=O)c2ccsc12`: the TGI in the assay with COLO 205 colon is 3.38 µM; in the assay with EKVX NSCLC, 3.63 µM; in the assay with HCC-2998 colon, 3.45 µM; with HCT-116 colon it was 2.21 µM; in the assay on HCT-15 colon it was 1.74 µM; in the assay on HOP-62 NSCLC it was 4.4 µM. Further, the TGI in the assay on HOP-92 NSCLC amounted to 2.75 µM; in the assay on LOX IMVI melanoma it was 0.357 µM; in the assay on MCF7 breast, 2.31 µM; with MDA-MB-231 breast, 6.17 µM; with NCI-H226 lung, 5.07 µM; in the assay on NCI-H23 lung, 1.05 µM. Moreover, the TGI was 1.22 µM with OVCAR-8 ovarian; 0.501 µM in the assay on RXF 393 renal; 2.41 µM in the assay with SF-295 CNS; 0.913 µM in the assay with SF-539 CNS; 2.45 µM in the assay with U251 CNS.

Take `CN(C)CCCNC(=O)c1cc(NS(=O)(=O)c2ccc3c(c2)C(=O)c2ccccc2C3=O)cn1C`: the TGI was over 100 µM in the assay on A549 NSCLC; over 100 µM in the assay on COLO 205 colon; over 100 µM with EKVX NSCLC; 57.3 µM in the assay with HCC-2998 colon; over 100 µM in the assay on HCT-116 colon; over 100 µM in the assay with HCT-15 colon. Besides, the TGI in the assay on HOP-62 NSCLC was over 100 µM; in the assay with HOP-92 NSCLC, over 100 µM; with LOX IMVI melanoma it was 39.6 µM; in the assay with MCF7 breast, 46.4 µM; with MDA-MB-231 breast it was 85.5 µM; in the assay with NCI-H226 lung, 42.5 µM. Further, the TGI was 64.7 µM in the assay with NCI-H23 lung; over 100 µM in the assay with OVCAR-5 ovarian; over 100 µM with OVCAR-8 ovarian; 57.4 µM with RXF 393 renal; 94.9 µM in the assay with SF-295 CNS; 75.6 µM with SF-539 CNS. In the assay with U251 CNS, this compound had a TGI of over 100 µM.

Consider `COC1=C2CC(C)CC(OC)C(OC(=O)CN)[C@H](C)/C=C(\C)C(OC(N)=O)C(OC)/C=C\C=C(/C)C(=O)NC(=CC1=O)C2=O` (stereo partly drawn), for which the TGI amounted to 21.8 µM in the assay with A549 NSCLC; 0.559 µM in the assay with COLO 205 colon; 13.1 µM with EKVX NSCLC; 7.81 µM with HCC-2998 colon; 3.45 µM in the assay on HCT-116 colon; 12.6 µM with HCT-15 colon. Also, the TGI in the assay on HOP-62 NSCLC came out at 6.02 µM; with HOP-92 NSCLC, 1.27 µM; in the assay on LOX IMVI melanoma it was 0.828 µM; in the assay with MCF7 breast, 2.01 µM; in the assay on MDA-MB-231 breast, 1.6 µM; in the assay on NCI-H226 lung, 24.7 µM. The TGI in the assay with NCI-H23 lung is 1.77 µM; with OVCAR-5 ovarian it was 13.8 µM; in the assay on OVCAR-8 ovarian, 4.24 µM; in the assay with RXF 393 renal it was 8.21 µM; with SF-295 CNS, 17.5 µM; in the assay on SF-539 CNS it was 12.7 µM. This compound also showed a TGI in the assay with U251 CNS of 12.6 µM.

Turning to `CCC1(CC)N=C(C(F)(F)F)c2cc(C(=O)C(F)(F)F)c3ccccc3c2N1`, the TGI was 60.7 µM in the assay with A549 NSCLC; 28.4 µM in the assay with COLO 205 colon; 64.2 µM in the assay with EKVX NSCLC; 15.3 µM in the assay with HCC-2998 colon; 16.1 µM in the assay with HCT-116 colon; over 100 µM in the assay on HCT-15 colon. For the same compound, the TGI in the assay on HOP-62 NSCLC turned out to be 28.5 µM; with HOP-92 NSCLC, 10.2 µM; in the assay on LOX IMVI melanoma, 13.7 µM; in the assay on MCF7 breast, 27.4 µM; in the assay with MDA-MB-231 breast, 12.3 µM; in the assay on NCI-H226 lung, 20.9 µM. For the same compound, the TGI in the assay on NCI-H23 lung was 11.2 µM; in the assay on OVCAR-5 ovarian it was 58.1 µM; with OVCAR-8 ovarian, over 100 µM; with RXF 393 renal, 9.87 µM; in the assay with SF-295 CNS it was 9.6 µM; in the assay on SF-539 CNS it was 31.8 µM. Also, in the assay on U251 CNS, the TGI was found to be 23.6 µM.

In the case of `COc1ccc(N=Nc2ccc3oc(=O)c(C(=O)Nc4ccccc4C)cc3c2)cc1`, the TGI in the assay with COLO 205 colon, with EKVX NSCLC, with HCC-2998 colon, in the assay on HCT-15 colon, in the assay on HOP-62 NSCLC and in the assay with HOP-92 NSCLC was over 10 µM each time. In addition, the TGI in the assay on LOX IMVI melanoma, with MCF7 breast, with MDA-MB-231 breast, in the assay on NCI-H226 lung, in the assay on NCI-H23 lung and in the assay with OVCAR-5 ovarian was over 10 µM each time. Also, the TGI in the assay on OVCAR-8 ovarian, in the assay on RXF 393 renal, with SF-295 CNS, in the assay on SF-539 CNS and in the assay on U251 CNS was over 10 µM each time.

`CC(C)OC(=O)[C@H]1ON2O[C@H](O[C@@H]3CCCC[C@H]3c3ccccc3)C([Si](C)(C)c3ccccc3)[C@H]3OC(=O)[C@@H]1C32` (stereo partly drawn): the TGI with A549 NSCLC, in the assay with COLO 205 colon, with EKVX NSCLC, in the assay with HCC-2998 colon, in the assay on HCT-116 colon and in the assay with HCT-15 colon was over 100 µM each time. In addition, the TGI in the assay on HOP-62 NSCLC, with HOP-92 NSCLC, with LOX IMVI melanoma, with MCF7 breast, in the assay on MDA-MB-231 breast and with NCI-H226 lung was over 100 µM in each case. The TGI with NCI-H23 lung, in the assay on OVCAR-8 ovarian, in the assay on RXF 393 renal, in the assay on SF-295 CNS, in the assay on SF-539 CNS and in the assay with U251 CNS was over 100 µM throughout.
